Experimental data from ChEMBL document CHEMBL1201862, “PubChem BioAssay data set” (2004).
“And” between values parts separate entries of the source, which are not always exact repeats. Equal values may be shown once.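 Briefly, cells in 96-well plates were exposed to five compound concentrations for 48 h, and endpoints were estimated by linear interpolation. GI50 marks 50% less growth.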 The source made the active and inactive calls. Cut-off read from the data, not from the text of the source: active = GI50 up to about 1.1 µM and inactive = higher.

Experiments:
Assay in all cases: inhibition of tumour cell growth, NCI panel, 48 h
IGROV-1 = tested on: IGROV-1
ACHN = tested on: ACHN
DU-145 = tested on: DU-145
RPMI-8226 = tested on: RPMI-8226
CAKI-1 = tested on: CAKI-1
Hs-578T = tested on: Hs-578T
BT-549 = tested on: BT-549
SNB-75 = tested on: SNB-75
786-0 = tested on: 786-0
M14 = tested on: M14
UO-31 = tested on: UO-31
SF-295 = tested on: SF-295
UACC-257 = tested on: UACC-257
MDA-N = tested on: MDA-N
UACC-62 = tested on: UACC-62
COLO 205 = tested on: COLO 205
SK-MEL-5 = tested on: SK-MEL-5
K562 = tested on: K562
Malme-3M = tested on: Malme-3M

SMILES	GI50 (IGROV-1)	GI50 (ACHN)	GI50 (DU-145)	GI50 (RPMI-8226)	GI50 (CAKI-1)	GI50 (Hs-578T)	GI50 (BT-549)	GI50 (SNB-75)	GI50 (786-0)	GI50 (M14)	GI50 (UO-31)	GI50 (SF-295)	GI50 (UACC-257)	GI50 (MDA-N)	GI50 (UACC-62)	GI50 (COLO 205)	GI50 (SK-MEL-5)	GI50 (K562)	GI50 (Malme-3M)
CC(=O)OCC1=CC2OC(=O)C3=COC(OC4OC(CO)C(O)C(O)C4O)C1C32 (centres undefined)	> 100 µM (inactive)	> 100 µM (inactive)	> 100 µM (inactive)	> 100 µM (inactive)	> 100 µM (inactive)	> 100 µM (inactive)	> 100 µM (inactive)	> 100 µM (inactive)	> 100 µM (inactive)	> 100 µM (inactive)	> 100 µM (inactive)	> 100 µM (inactive)	> 100 µM (inactive)	> 100 µM (inactive)	> 100 µM (inactive)	> 100 µM (inactive)	> 100 µM (inactive)		
CCCCCCCCCCCCCCCCOC[C@H](COC(c1ccccc1)(c1ccccc1)c1ccccc1)O[PH](=S)OC (some centres undefined)	> 100 µM (inactive)	> 100 µM (inactive)	> 100 µM (inactive)	> 100 µM (inactive)	> 100 µM (inactive)	> 100 µM (inactive)	> 100 µM (inactive)	> 100 µM (inactive)	> 100 µM (inactive)	> 100 µM (inactive)	> 100 µM (inactive)	> 100 µM (inactive)	> 100 µM (inactive)	> 100 µM (inactive)	> 100 µM (inactive)	> 100 µM (inactive)	> 100 µM (inactive)	> 100 µM (inactive)	
CCOC(=O)c1c(OCC)[nH]c(=O)c(C(c2cccs2)c2c(O)c(C(=O)OCC)c(OCC)[nH]c2=O)c1O	13.9 µM (inactive)	12.8 µM (inactive)	13.9 µM (inactive)	12.1 µM (inactive)	18 µM (inactive)	21 µM (inactive)	5 µM (inactive)	0.082 µM (active)	12.1 µM (inactive)	16.1 µM (inactive)	10.9 µM (inactive)	12 µM (inactive)	11.7 µM (inactive)		14.2 µM (inactive)	17.3 µM (inactive)	12.9 µM (inactive)		8.36 µM (inactive)
CNc1nc(N)nc(Nc2ccc(I)cc2)c1N=O	> 100 µM (inactive)	> 100 µM (inactive)	> 100 µM (inactive)	> 100 µM (inactive)		39.1 µM (inactive)	> 100 µM (inactive)	> 100 µM (inactive)	> 100 µM (inactive)		27 µM (inactive)	> 100 µM (inactive)	85.3 µM (inactive)	> 100 µM (inactive)	48 µM (inactive)	36.4 µM (inactive)	96.2 µM (inactive)	68.2 µM (inactive)	> 100 µM (inactive)
CC(=O)OCC1OC(n2c(N)c(C#N)c(C)c(C#N)c2=S)C(OC(C)=O)C(OC(C)=O)C1OC(C)=O (centres undefined)	> 100 µM (inactive)	> 100 µM (inactive)	> 100 µM (inactive)	> 100 µM (inactive)	> 100 µM (inactive)	> 100 µM (inactive)	> 100 µM (inactive)	> 100 µM (inactive)	> 100 µM (inactive)	46.3 µM (inactive) and 80.9 µM (inactive)	> 100 µM (inactive)	> 100 µM (inactive)	> 100 µM (inactive)	> 100 µM (inactive)	> 100 µM (inactive)	> 100 µM (inactive)	> 100 µM (inactive)		> 100 µM (inactive) and 78.5 µM (inactive)
Clc1ccc(OCc2nnc(COc3ccc(OCc4nnc(COc5ccc(Cl)cc5Cl)o4)c(Cl)c3)o2)c(Cl)c1	17.7 µM (inactive)	40.6 µM (inactive)	71.3 µM (inactive)	17.3 µM (inactive)	24.8 µM (inactive)	42.5 µM (inactive)	69.2 µM (inactive)		30.8 µM (inactive)	76.4 µM (inactive)	17.9 µM (inactive)	33.3 µM (inactive)	> 100 µM (inactive)	47.3 µM (inactive)	40.5 µM (inactive)	24.4 µM (inactive)	41.1 µM (inactive)	24.3 µM (inactive)	37.6 µM (inactive)
Cc1nc(C(N)=S)sc1/C(CC(=O)C(=O)Nc1cccc2ccc(O)cc12)=N\NC(=O)c1ccncc1	53.7 µM (inactive)	> 100 µM (inactive)	55.3 µM (inactive)		> 100 µM (inactive)	> 100 µM (inactive)	> 100 µM (inactive)	> 100 µM (inactive)	40.3 µM (inactive)	> 100 µM (inactive)	98.2 µM (inactive)	> 100 µM (inactive)	> 100 µM (inactive)	63.5 µM (inactive)	29.5 µM (inactive)	49.2 µM (inactive)	33.2 µM (inactive)		
C=C1C(=O)O[C@@H]2C[C@@]3(C)CC(=O)C=C(C)[C@@H]3C[C@H]12	13.3 µM (inactive)	2.69 µM (inactive)	4.29 µM (inactive)	2.12 µM (inactive)	8.36 µM (inactive)	27.2 µM (inactive)	10.8 µM (inactive)	16.1 µM (inactive)	12.4 µM (inactive)	13.5 µM (inactive)	11.5 µM (inactive)	33.1 µM (inactive)	12.2 µM (inactive)	3.74 µM (inactive)	14.6 µM (inactive)	3.37 µM (inactive)	10 µM (inactive)		5.98 µM (inactive)
